Data as given in patent US9023803B2, “Cancer therapy based on tumor associated antigens derived from cyclin D1” (Immatics Biotechnologies GmbH, priority 2010, dated 2015).

How the values were obtained:
[1] = test system: HLA-A*68; test: HLA-restriction: binding to HLA-A*68; parameters: species or system human
[2] = test system: regulatory T cells; settings: low-dose cyclophosphamide 300 mg/m^2 single infusion before vaccination
Source text: Absolute counts are shown in (A), percent change from baseline is shown in (B).
(§1) Some patients received a prior TKI therapy with sunitinib or sorafenib, others a prior cytokine therapy with interferon or interleukin.

[3] = test system: patients; test: Clinical study of vaccine IMA901 with or without prior cyclophosphamide; format: in vivo, human
Source text: as §1
Both patient groups were followed up for progression-free survival (PFS) and overall survival (OS).

[4] = test system: HLA-A*02; test: HLA-restriction: binding to HLA-A*02; parameters: species or system human
[5] = test system: HLA-A*26; test: HLA-restriction: binding to HLA-A*26; parameters: species or system human
[6] = test system: cancer patients; test: Prevaccination T cell responses in cancer patients; format: in vivo, human; settings: certain cancer patients
Source text: A further aspect of the invention then relates to the use of the peptide or combination according to the invention as a diagnostic tool in the diagnosis of cancer. Basically, the presence of the peptides or a combination thereof in the patient indicates cancer. […] Again, for the diagnosis, the peptides can be labeled. Furthermore, antibodies against the peptides (or combinations) can also be used. The diagnosis can be performed in vivo or in vitro.

[7] = test system: CTL; settings: HLA-A2+ healthy donors, colon cancer and mantle cell lymphoma patients; CD40-activated B cells as APCs; cited from earlier work
[8] = biological target: HLA A*0201 (Homo sapiens, UniProt P04439, D140Y/D185E/D98H/E176V/E277Q/G131W/G231S/I119V/I121R/I166T/I218V/L300P/L318F/N151K/N90K/P208A/P217A/Q86G/Q94H/R138H/R169H/T345S); test: ELISA-based HLA binding method (Sylvester-Hvid et al., 2002)
[9] = test system: HLA-A*02 positive tumor cells endogenously expressing Cyclin D1; settings: allo-restricted T cells of HLA-A2-negative donors; cited from earlier work
[10] = test system: HLA class-II; test: HLA-restriction: binding to HLA class-II; parameters: species or system human

In the case of ETIPLTAEKL [CCN-006], the “binding to HLA-A*68” value [1] is reported as “seems to be a HLA-A*68 binder”.
For `O=P1(N(CCCl)CCCl)NCCCO1` (stereo not drawn) [cyclophosphamide, reference compound], the “number of regulatory T cells” value [2] was “reduced” and the “outcome of the treatment using the vaccine after prior low-dose cyclophosphamide” value ([3]; single infusion 300 mg/m^2 before IMA901) was “significantly improved”.
For “EVFPLAMNY (listed as Homo sapiens) [CCN-004, cyclin D1-derived peptide, aa 76-84]”, the “binding to HLA-A*02” value [4] was “practically no binding” and the “binding to HLA-A*26” value [5] was “high binding”.
With “YLSGANLNL (listed as Homo sapiens) [CEA-004]” the prevaccination responses [6] was “found”.
In the case of “LLGATCMFV (listed as Homo sapiens) [CCN-001, cyclin D1-derived peptide, aa 101-109]”, the prevaccination responses [6] is reported as “found”, the “survival of patients responding against CCN-001 versus non-CCN-001-responding patients” value ([3]; all vaccinated patients) is reported as “significant longer survival” and the “favorable effect of T cell response against CCN-001 on survival” value ([3]; patient group pretreated with cyclophosphamide) is reported as “even more evident”. The “generation of CTL specific for the epitope” value [7] was “could be generated”, the “binding to HLA A*0201” value [8] was “Good binding” and the “lysis of Cyclin D1 expressing HLA-A*02 positive tumor cells by T cell clones recognizing the peptide” value [9] was “could lyze”.
In the case of “NPPSMVAAGSVVAAV (listed as Homo sapiens) [CCN-003, cyclin D1-derived peptide, aa 198-212]”, the HLA restriction [10] is reported as “DRB1*0401 restricted” and the “binding to HLA class-II” value [10] is reported as “binds”.
With “ALLESSLRQA (listed as Homo sapiens) [CCN-007, cyclin D1-derived peptide, aa 253-262]” the “binding to HLA-A*02” value [4] was “moderate binder”.
